Laboratory results published in ChEMBL document CHEMBL5212743, “Selectivity Literature for EUbOPEN Chemogenomics Library wave 3” (2023).

Key:
[1] = target: T1, Adenosine receptor A3 (Homo sapiens, UniProt P0DMS8); experiment: Selectivity interaction (Eurofins-Panlabs radioligand binding assay ) EUB0000307b ADORA3
T1 sequence (P0DMS8 whole entry): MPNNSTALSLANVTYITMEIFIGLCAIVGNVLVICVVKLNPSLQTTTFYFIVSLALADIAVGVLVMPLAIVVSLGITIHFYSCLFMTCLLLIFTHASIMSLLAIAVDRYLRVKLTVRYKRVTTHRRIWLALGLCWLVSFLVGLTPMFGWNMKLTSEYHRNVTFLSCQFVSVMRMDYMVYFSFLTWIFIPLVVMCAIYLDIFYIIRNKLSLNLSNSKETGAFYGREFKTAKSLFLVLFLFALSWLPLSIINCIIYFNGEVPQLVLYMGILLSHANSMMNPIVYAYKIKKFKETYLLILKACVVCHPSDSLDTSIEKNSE

[2] = target: Prostaglandin E2 receptor EP4 subtype (Homo sapiens, UniProt P35408); experiment: Selectivity interaction (Eurofins-Panlabs radioligand binding assay ) EUB0000307b PTGER4
[3] = target: Serine/threonine-protein kinase WNK4 (Homo sapiens) (UniProt Q96J92); experiment: Selectivity interaction (KinomeScan (DiscoverX)) EUB0000307b WNK4; conditions: at 1 µM
[4] = target: Epithelial discoidin domain-containing receptor 1 (Homo sapiens, UniProt Q08345); experiment: Selectivity interaction (KinomeScan (DiscoverX)) EUB0000307b DDR1; conditions: at 1 µM
[5] = target: T2, Gamma-aminobutyric acid receptor subunit alpha-1 (Homo sapiens, UniProt P14867); experiment: (§1) Selectivity interaction (GPCR panel (PDSP screen)) EUB0000707a GABRA1
T2 sequence (P14867 whole entry): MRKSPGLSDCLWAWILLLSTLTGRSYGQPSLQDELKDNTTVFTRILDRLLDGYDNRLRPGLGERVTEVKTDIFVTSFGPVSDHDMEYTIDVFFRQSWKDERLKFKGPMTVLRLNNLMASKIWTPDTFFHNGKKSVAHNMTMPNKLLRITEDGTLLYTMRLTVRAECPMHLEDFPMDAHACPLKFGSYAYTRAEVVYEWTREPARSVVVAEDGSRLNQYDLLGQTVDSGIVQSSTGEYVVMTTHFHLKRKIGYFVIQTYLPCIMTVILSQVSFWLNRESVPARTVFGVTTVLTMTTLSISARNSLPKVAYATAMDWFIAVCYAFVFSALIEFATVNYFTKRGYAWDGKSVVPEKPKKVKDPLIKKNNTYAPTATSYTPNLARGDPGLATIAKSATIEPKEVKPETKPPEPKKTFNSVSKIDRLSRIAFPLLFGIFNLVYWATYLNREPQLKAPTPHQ

[6] = target: T2, Gamma-aminobutyric acid receptor subunit alpha-1; experiment: as §1; remark: listed apart in the source
[7] = target: Hepatocyte growth factor receptor (Homo sapiens) (UniProt P08581); experiment: (§2) Selectivity interaction (KinomeScan (DiscoverX)) EUB0000707a MET; conditions: at 1 µM
[8] = system: Hepatocyte growth factor receptor (Homo sapiens), P08581 [M1250T]; experiment: as §2; conditions: at 1 µM
[9] = target: Phosphatidylinositol 4-kinase beta (Homo sapiens) (UniProt Q9UBF8); experiment: Selectivity interaction (KinomeScan (DiscoverX)) EUB0000707a PI4KB; conditions: at 1 µM
[10] = target: Interleukin-1 receptor-associated kinase 4 (Homo sapiens) (UniProt Q9NWZ3); experiment: Selectivity interaction (KinomeScan (DiscoverX)) EUB0000707a IRAK4; conditions: at 1 µM
[11] = target: D(2) dopamine receptor (Homo sapiens, UniProt P14416); experiment: Selectivity interaction (GPCR panel (PDSP screen)) EUB0000728a DRD2; conditions: at 10 µM
[12] = target: Calcium/calmodulin-dependent protein kinase type 1B (Homo sapiens, UniProt Q6P2M8); experiment: Selectivity interaction (KinomeScan (DiscoverX)) EUB0000728a PNCK; conditions: at 1 µM
[13] = target: Collagenase 3 (Homo sapiens, UniProt P45452); experiment: Selectivity interaction (Lead profiling screen (Eurofins, enzymes, transporters, GPCRs, ion chanels)) EUB0000728a MMP13
[14] = target: Stromelysin-2 (Homo sapiens, UniProt P09238); experiment: Selectivity interaction (Lead profiling screen (Eurofins, enzymes, transporters, GPCRs, ion chanels)) EUB0000728a MMP10
[15] = target: Matrix metalloproteinase-14 (Homo sapiens, UniProt P50281); experiment: Selectivity interaction (Lead profiling screen (Eurofins, enzymes, transporters, GPCRs, ion chanels)) EUB0000728a MMP14
[16] = target: Matrix metalloproteinase-16 (Homo sapiens, UniProt P51512); experiment: Selectivity interaction (Lead profiling screen (Eurofins, enzymes, transporters, GPCRs, ion chanels)) EUB0000728a MMP16
[17] = target: 72 kDa type IV collagenase (Homo sapiens, UniProt P08253); experiment: Selectivity interaction (Lead profiling screen (Eurofins, enzymes, transporters, GPCRs, ion chanels)) EUB0000728a MMP2
[18] = target: Stromelysin-1 (Homo sapiens, UniProt P08254); experiment: Selectivity interaction (Lead profiling screen (Eurofins, enzymes, transporters, GPCRs, ion chanels)) EUB0000728a MMP3
[19] = target: T3, Matrilysin (Homo sapiens, UniProt P09237); experiment: Selectivity interaction (Lead profiling screen (Eurofins, enzymes, transporters, GPCRs, ion chanels)) EUB0000728a MMP7
T3 sequence (P09237 whole entry): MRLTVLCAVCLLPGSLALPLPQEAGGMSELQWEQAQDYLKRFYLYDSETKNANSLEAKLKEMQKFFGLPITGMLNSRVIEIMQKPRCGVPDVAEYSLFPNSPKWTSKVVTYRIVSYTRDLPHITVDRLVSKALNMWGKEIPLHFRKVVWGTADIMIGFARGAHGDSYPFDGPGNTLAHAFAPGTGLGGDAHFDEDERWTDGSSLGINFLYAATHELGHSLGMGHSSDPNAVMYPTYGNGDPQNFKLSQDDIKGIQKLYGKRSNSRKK

[20] = target: Neutrophil collagenase (Homo sapiens, UniProt P22894); experiment: Selectivity interaction (Lead profiling screen (Eurofins, enzymes, transporters, GPCRs, ion chanels)) EUB0000728a MMP8
[21] = target: Matrix metalloproteinase-9 (Homo sapiens, UniProt P14780); experiment: Selectivity interaction (Lead profiling screen (Eurofins, enzymes, transporters, GPCRs, ion chanels)) EUB0000728a MMP9
[22] = target: Epidermal growth factor receptor (Homo sapiens, UniProt P00533); experiment: Selectivity interaction (KinomeScan (DiscoverX)) EUB0000728a EGFR; conditions: at 1 µM
[23] = target: Non-receptor tyrosine-protein kinase TYK2 (Homo sapiens, UniProt P29597); experiment: Selectivity interaction (KinomeScan (DiscoverX)) EUB0000728a TYK2; conditions: at 1 µM
Chain of Non-receptor tyrosine-protein kinase TYK2 (P29597 whole entry): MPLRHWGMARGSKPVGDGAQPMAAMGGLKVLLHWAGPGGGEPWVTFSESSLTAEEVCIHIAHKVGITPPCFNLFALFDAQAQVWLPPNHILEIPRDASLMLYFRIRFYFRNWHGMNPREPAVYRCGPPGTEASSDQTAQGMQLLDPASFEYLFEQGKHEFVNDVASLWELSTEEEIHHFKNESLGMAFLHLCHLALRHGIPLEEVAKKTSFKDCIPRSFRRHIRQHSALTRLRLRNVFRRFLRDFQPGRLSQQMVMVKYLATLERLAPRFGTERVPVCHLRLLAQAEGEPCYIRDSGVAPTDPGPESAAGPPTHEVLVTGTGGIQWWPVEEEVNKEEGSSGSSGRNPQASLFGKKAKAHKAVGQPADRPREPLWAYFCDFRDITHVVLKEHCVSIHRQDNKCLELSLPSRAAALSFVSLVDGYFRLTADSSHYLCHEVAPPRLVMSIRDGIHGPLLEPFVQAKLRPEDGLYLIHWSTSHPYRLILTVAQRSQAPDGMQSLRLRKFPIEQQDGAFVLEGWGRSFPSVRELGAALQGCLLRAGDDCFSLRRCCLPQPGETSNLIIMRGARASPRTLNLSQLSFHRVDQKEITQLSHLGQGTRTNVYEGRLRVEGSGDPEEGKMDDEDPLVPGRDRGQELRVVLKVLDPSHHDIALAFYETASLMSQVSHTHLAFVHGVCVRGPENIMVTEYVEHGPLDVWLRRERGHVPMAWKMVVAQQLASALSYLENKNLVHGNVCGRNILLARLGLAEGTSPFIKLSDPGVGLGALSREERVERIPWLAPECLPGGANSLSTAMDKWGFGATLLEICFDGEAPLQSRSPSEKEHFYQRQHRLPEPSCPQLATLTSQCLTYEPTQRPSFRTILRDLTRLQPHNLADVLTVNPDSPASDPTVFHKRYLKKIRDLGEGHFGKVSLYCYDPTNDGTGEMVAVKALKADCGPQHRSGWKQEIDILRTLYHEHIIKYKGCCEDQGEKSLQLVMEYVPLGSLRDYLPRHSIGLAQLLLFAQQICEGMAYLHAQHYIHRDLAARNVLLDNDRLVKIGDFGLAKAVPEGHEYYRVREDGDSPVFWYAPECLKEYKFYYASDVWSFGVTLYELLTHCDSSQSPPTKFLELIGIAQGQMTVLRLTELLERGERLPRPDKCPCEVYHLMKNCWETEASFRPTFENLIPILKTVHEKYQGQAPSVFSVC

Chain of Phosphatidylinositol 4-kinase beta (Homo sapiens) (Q9UBF8 2-816 limits assumed): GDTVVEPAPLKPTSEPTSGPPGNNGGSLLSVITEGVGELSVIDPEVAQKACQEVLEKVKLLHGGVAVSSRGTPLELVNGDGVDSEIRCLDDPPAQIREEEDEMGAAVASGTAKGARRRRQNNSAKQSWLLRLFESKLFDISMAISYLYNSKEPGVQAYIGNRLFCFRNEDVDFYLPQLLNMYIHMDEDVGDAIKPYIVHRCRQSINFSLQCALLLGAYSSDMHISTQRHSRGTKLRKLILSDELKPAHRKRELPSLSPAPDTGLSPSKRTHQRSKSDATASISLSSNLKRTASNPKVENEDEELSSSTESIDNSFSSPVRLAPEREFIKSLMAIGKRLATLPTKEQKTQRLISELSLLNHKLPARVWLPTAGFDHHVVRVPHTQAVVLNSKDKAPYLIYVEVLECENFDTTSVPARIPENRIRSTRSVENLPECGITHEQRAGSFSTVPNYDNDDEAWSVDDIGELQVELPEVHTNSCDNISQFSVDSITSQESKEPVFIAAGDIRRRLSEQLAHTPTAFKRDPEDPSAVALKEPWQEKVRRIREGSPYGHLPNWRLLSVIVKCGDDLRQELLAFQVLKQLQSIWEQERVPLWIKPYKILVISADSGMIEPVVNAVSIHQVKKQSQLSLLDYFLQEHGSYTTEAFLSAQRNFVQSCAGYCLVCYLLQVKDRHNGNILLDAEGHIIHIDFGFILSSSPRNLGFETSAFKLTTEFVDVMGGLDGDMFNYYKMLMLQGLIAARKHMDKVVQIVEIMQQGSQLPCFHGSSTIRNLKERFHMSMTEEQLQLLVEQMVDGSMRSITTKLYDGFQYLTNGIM
Chain of Epithelial discoidin domain-containing receptor 1 (Q08345 whole entry, the tested form may be a part): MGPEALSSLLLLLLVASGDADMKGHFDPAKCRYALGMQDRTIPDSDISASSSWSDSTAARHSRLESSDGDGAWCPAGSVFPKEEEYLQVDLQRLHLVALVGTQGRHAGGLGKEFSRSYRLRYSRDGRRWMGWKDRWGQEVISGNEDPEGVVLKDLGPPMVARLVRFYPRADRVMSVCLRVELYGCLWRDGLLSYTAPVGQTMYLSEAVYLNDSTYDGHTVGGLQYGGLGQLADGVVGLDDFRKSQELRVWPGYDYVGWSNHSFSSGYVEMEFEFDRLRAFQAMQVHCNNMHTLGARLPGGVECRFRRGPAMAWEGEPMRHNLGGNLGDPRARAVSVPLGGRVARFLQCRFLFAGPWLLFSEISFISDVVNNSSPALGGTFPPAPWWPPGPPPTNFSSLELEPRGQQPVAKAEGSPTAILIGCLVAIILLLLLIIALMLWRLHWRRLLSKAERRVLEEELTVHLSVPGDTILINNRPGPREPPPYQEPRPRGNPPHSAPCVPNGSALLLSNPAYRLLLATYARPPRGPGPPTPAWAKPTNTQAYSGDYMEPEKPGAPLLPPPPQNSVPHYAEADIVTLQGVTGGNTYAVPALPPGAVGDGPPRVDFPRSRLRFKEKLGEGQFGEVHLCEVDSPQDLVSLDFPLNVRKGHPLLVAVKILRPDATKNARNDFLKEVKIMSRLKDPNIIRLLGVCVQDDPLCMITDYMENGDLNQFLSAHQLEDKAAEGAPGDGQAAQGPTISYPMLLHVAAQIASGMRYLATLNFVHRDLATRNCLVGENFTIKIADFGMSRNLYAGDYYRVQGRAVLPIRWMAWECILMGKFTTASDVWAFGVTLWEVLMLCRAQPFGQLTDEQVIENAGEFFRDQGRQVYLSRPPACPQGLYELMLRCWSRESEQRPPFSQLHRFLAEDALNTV
Chain of 72 kDa type IV collagenase (P08253 whole entry): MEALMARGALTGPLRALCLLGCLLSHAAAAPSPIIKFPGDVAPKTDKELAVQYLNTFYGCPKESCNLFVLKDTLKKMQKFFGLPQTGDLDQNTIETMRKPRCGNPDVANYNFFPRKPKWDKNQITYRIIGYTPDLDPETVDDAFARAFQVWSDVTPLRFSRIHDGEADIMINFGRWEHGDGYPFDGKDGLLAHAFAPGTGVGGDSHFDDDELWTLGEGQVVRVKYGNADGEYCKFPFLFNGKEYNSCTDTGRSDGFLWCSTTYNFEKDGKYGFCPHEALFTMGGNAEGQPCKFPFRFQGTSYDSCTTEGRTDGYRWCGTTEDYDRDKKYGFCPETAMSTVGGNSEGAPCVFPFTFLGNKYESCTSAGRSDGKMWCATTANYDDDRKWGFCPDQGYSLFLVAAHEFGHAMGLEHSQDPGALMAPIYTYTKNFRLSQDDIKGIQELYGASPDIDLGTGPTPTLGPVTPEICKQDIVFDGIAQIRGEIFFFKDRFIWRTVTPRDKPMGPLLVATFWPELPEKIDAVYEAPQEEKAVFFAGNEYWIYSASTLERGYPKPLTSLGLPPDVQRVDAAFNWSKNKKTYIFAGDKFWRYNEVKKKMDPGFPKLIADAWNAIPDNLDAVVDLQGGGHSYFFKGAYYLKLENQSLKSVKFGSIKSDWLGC
Chain of Serine/threonine-protein kinase WNK4 (Homo sapiens) (Q96J92 whole entry, the tested form may be a part): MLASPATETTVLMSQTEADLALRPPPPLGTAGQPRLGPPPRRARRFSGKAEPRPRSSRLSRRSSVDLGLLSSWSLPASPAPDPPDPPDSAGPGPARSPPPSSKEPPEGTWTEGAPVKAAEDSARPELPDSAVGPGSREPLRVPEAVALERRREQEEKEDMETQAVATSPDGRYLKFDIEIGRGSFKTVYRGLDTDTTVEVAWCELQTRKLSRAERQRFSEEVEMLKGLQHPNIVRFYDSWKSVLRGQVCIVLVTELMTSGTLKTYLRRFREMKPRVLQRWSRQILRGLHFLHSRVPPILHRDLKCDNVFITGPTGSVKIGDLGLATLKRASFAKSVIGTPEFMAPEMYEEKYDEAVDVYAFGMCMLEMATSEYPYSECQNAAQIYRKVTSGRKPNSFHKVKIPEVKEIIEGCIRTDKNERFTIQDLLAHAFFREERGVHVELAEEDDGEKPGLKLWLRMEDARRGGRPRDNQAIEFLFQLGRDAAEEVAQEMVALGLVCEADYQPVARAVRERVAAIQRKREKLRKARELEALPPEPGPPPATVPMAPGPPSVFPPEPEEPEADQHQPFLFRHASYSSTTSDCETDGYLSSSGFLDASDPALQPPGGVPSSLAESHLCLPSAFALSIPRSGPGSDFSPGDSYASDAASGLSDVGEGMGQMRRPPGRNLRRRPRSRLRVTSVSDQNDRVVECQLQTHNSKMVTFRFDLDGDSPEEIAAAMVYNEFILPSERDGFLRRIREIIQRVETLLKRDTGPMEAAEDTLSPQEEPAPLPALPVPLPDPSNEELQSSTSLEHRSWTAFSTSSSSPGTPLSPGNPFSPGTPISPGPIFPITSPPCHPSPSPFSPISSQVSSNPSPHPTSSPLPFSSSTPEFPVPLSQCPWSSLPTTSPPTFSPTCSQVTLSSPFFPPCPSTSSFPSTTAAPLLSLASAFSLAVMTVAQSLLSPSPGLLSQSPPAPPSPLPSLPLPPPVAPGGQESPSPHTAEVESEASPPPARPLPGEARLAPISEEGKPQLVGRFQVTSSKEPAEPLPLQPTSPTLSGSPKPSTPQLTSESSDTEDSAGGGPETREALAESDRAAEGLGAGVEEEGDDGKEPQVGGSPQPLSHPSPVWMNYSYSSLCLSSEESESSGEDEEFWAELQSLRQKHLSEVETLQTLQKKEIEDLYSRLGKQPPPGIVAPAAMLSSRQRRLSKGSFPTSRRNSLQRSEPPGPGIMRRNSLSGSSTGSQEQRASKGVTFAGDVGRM

`Cc1c(NC(=O)c2cc(C(N)=O)nc3cc(F)ccc23)c(C(F)(F)F)nn1Cc1ccc(C#N)cc1` [BAY-876] showed an IC50 [1] of 1140 nM, an IC50 [2] of 1120 nM and a % of control [3] of 0%. The % of control [4] was 1.5%.
For `CC1=C(C#N)C(c2ccc3c(c2)c(NC(=O)c2ccccc2C)nn3C)C(C#N)=C(C)N1` [BAY-974], the Ki [5] was 21 nM, the Ki [6] was 21 nM and the % of control [7] was 24%. The % of control [8] was 27%, the % of control [9] was 30% and the % of control [10] was 7.5%.
In the case of `O=C(O)[C@H]1[C@H](Cn2nnc3ccccc3c2=O)CC[C@@H]1C(=O)c1ccc(OCCC2CCOCC2)cc1` [BAY-7598], the % of inhibition [11] is reported as 30%, the % of control [12] is reported as 46% and the IC50 [13] is reported as 67 nM. It also gave an IC50 [14] of 13 nM, an IC50 [15] of 250 nM and an IC50 [16] of 940 nM. The IC50 [17] was 44 nM, the IC50 [18] was 360 nM and the IC50 [19] was 600 nM. The IC50 [20] was 15 nM, the IC50 [21] was 460 nM and the % of control [22] was 40%. The % of control [23] was 41%.
